Assay results taken from patent publication US20210171576A1, “METHODS FOR TREATING CANCER WITH ACYLDEPSIPEPTIDE ANALOGS” (priority 2018, published 2021).
Where a SMILES comes first, the peptide text is derived from it. Bridges are numbered along the chain shown (N, C = ends). [ ]: non-standard residue; d: D form. The star is where a group is joined. Phe(3,5-F2) = N[C@@H](Cc1cc(F)cc(F)c1)C(=O)O; Heptenoyl(2E) = CCCC/C=C/C(=O)*; aThr = C[C@H](O)[C@H](N)C(=O)O; Pip = O=C(O)[C@@H]1CCCCN1

What was measured:
[1] = tested on: U2OS cells; test: Cytotoxicity, SRB staining
Procedure: (§1) To assess the cytotoxicity of ADEP analogs, cells were seeded at 1×10^3 or 2×10^3 cells in 50 μL per well on sterile 96-well flat-bottom tissue culture plates (VWR). Growth media without any cells was included as a control. Cells were grown for at least 24 hours to allow proper adherence to the growth surface. Afterwards, ADEP analogs were serially diluted and introduced to the tissue cultures via fresh growth media at 50 μL per well. Inclusion of activators/DMSO brought the final DMSO concentration of the growth media up to a maximum of 0.5% (v:v). […] A total of four independent replicates were prepared for each cell line and for each growth condition used. Cells were grown in the presence of ADEP/DMSO for 72 hours.
(§2) To assess cell survival, live adherent cells were fixed with 10% (w:v) trichloroacetic acid (TCA) at 4° C. for 1-2 hours. The tissue culture plates were then rinsed with water to remove dead cells and cell debris and air-dried overnight. […] Absorbance at λ=510 nm (A510) was then measured using the EnSpire 2300 Multilabel Reader. […]
(§3) To determine the IC50 for the ADEP analogs, relative cell viability (RCV) values were calculated by normalizing the A510 readings in ADEP-containing sample to the DMSO-only control. […]

[2] = biological target: T1, HsCIpP (Homo sapiens, UniProt Q16740, P57S); test: Peptidase activity assay (Ac-WLA-AMC cleavage) with ADEP; assay type: biochemical; details: 6 μM HsCIpP, 100 μM Ac-WLA-AMC
T1 construct: 2x(His6-thrombin)-SUMO (N, cleaved yes); made in house; host or cells: E. coli (SG1146 stated for HsClpP; 'a similar protocol' for HsClpX)
T1 sequence (Q16740 57-277 P57S): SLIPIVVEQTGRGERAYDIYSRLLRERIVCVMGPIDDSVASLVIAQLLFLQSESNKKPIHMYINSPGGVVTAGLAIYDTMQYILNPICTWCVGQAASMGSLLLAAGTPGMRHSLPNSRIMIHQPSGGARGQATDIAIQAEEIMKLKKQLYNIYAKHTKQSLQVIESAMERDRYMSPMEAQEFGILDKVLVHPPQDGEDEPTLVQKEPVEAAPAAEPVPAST
Procedure: The peptidase activity of purified, untagged HsCIpP was assessed by monitoring the degradation of peptidyl substrates labelled with a C-terminal 7-amido-4-methylcoumarin (AMC) fluorophore. […] To identify a suitable peptidyl substrate, commercially available AMC-labelled peptides were purchased and tested for degradation by HsCIpP. These include N-acetyl-Trp-Leu-Ala-AMC (Ac-WLA-AMC) (R&D Systems) that was also previously used by Csizmadia et (Csizmadia et al., 2016), benzyloxycarbonyl-Arg-Arg-AMC (Z-RR-AMC) (Sigma-Aldrich), N-acetyl-Leu-Glu-His-Asp-AMC […] (Sigma-Aldrich), N-acetyl-Val-Glu-Thr-Asp-AMC (Ac-VETD-AMC) (Sigma-Aldrich), and benzyloxycarbonyl-Leu-Leu-Leu-AMC (Z-LLL-AMC) (Sigma-Aldrich). Suc-LY-AMC (MP Biomedicals) was also tested as a negative control. All stock solutions of the AMC-labelled peptides were prepared by dissolving the lyophilized peptides in DMSO at 90 mM or a lower concentration recommended by the manufacturer. […] Degradation of the peptidyl substrates and subsequent release of the free AMC moiety was monitored by fluorescence with λex=360 nm and λem=440 nm using the EnSpire 2300 Multilabel Reader (Perkin-Elmer) set to perform a reading every 30 s with 20 flashes. A total of 240 readings were collected for each of three independent replicates prepared for each peptidyl substrate. […]
Initial degradation rates data were analyzed using the Hill model. […]

[3] = tested on: HEK293 T-REx WT cells; test: 3D Structured Illumination Microscopy (3DSIM) of mitochondrial morphology; assay type: cell-based, human; details: 2 μM
Procedure: HEK293 T-REx WT and CLPP^'1/− cells were seeded on coverslips (Electron Microscopy Sciences) pre-coated with poly-D-lysine hydrobromide (Sigma-Aldrich) in a 12-well culture plate (Falcon). Cells were grown for 24 hours to allow adhesion, followed by treatment with 2 μM ADEP-41 or DMSO in the same manner as described in previous sections, for 24 or 72 hours. At these time points, the original media was removed, and cells were incubated for 30 minutes at 37° C., 5% CO2 with 200 nM MitoTracker Red CMXRos (Molecular Probes) in Opti-MEM™ Reduced Serum Medium (Gibco). Cells were then washed once with PBS and fixed with 4% (v/v) paraformaldehyde (Electron Microscopy Sciences) in PBS for 20 minutes at room temperature.
The fixed cells were then washed twice with PBS, permeabilized with 0.2% (v/v) Triton X-100 (BioShop) in PBS for 10 minutes at room temperature and incubated with 2 μg/mL Hoechst 33342 (Molecular Probes) in PBS for 10 minutes at room temperature to counterstain nuclei. Coverslips were then washed three times with PBS+0.05% (v/v) Tween-20 and mounted on microscope glass slides (VWR) using 0.5% (w/v) propyl gallate (Sigma-Aldrich) dissolved in glycerol as the mounting medium.
3DSIM data were collected on the ELYRA PS.1 super resolution microscope (Carl Zeiss Microscopy) using a 63× (1.4 NA) Plan-Apochromatic oil immersion objective (Carl Zeiss Microscopy) and a 1.6× Optovar. […]

[4] = tested on: HeLa (regular) cells; test: Cytotoxicity, SRB staining
Procedure: as §1, §2, §3

## CCCC/C=C/C(=O)N[C@@H](Cc1cc(F)cc(F)c1)C(=O)N[C@@H]1C(=O)N2CCC[C@H]2C(=O)N2CCCC[C@H]2C(=O)N[C@@H](C)C(=O)N2CCC[C@H]2C(=O)O[C@H]1C [ADEP-41] ({Heptenoyl(2E)}-[Phe(3,5-F2)][aThr]P[Pip]AP; ester 2-C)
[1]
  IC50 compared across cell lines: similar
[2]
  Hill coefficient (h), peptidase activity: 1.5
[3]; 24 hours
  mitochondrial fragmentation: clear signs of mitochondrial fragmentation
[3]; 72 hours
  mitochondrial fragmentation: very significant
[4]
  IC50 compared across cell lines: similar
